In test [1] the test system is Pseudomonas aeruginosa. Nature of the test: Antibacterial activity against Pseudomonas aeruginosa PAO1 harboring gatA::ISphoA/haha mutation by Etest. Type of test: functional.
The subject of test [2] is Pseudomonas aeruginosa. Nature of the test: Antibacterial activity against Pseudomonas aeruginosa PAO1 harboring gabD::ISlacZ/haha mutation by Etest. In kind it is functional.
Test [3] relates to Pseudomonas aeruginosa. Nature of the test: Antibacterial activity against wild type Pseudomonas aeruginosa PAO1 assessed as viable bacterial count by Etest. In kind it is functional.
Test [4] has as its system Pseudomonas aeruginosa. Nature of the test: Antibacterial activity against Pseudomonas aeruginosa PAO1 harboring phoU::ISphoA/haha mutation by Etest. In kind it is functional.
Test [5] has as its system Pseudomonas aeruginosa. Nature of the test: Antibacterial activity against Pseudomonas aeruginosa PAO1 harboring gabD::ISphoA/haha mutation by Etest. In kind it is functional.
The test system of test [6] is Pseudomonas aeruginosa. Nature of the test: Antibacterial activity against Pseudomonas aeruginosa PAO1 harboring mmsA::ISphoA/haha mutation by Etest. Type of test: functional.
The subject of test [7] is Pseudomonas aeruginosa. Nature of the test: Antibacterial activity against Pseudomonas aeruginosa PAO1 harboring yaaA::ISphoA/haha mutation by Etest. Type of test: functional.
The test system of test [8] is Pseudomonas aeruginosa. Nature of the test: Antibacterial activity against Pseudomonas aeruginosa PAO1 horboring gabD mutant gene assessed as viable bacterial count at 4 times MIC after 24 hrs by Etest. Type of test: functional, organism-based.
In test [9] the test system is Pseudomonas aeruginosa. Nature of the test: Antibacterial activity against Pseudomonas aeruginosa PAO1 horboring yaaA mutant gene assessed as viable bacterial count at 4 times MIC after 24 hrs by Etest. Type of test: functional, organism-based.
The test system of test [10] is Pseudomonas aeruginosa. Nature of the test: Antibacterial activity against wild type Pseudomonas aeruginosa PAK assessed as viable bacterial count at 0.5 times MIC after 48 hrs by Etest. Type of test: functional, organism-based.
The subject of test [11] is Pseudomonas aeruginosa. Nature of the test: Antibacterial activity against Pseudomonas aeruginosa PAO1 horboring gabD mutant gene assessed as viable bacterial count at 8 times MIC after 48 hrs by Etest. Type of test: functional, organism-based.
Test [12] relates to Pseudomonas aeruginosa. Nature of the test: Antibacterial activity against Pseudomonas aeruginosa PAO1 horboring mmsA mutant gene assessed as viable bacterial count at 4 times MIC after 24 hrs by Etest. In kind it is functional, organism-based.
For test [13], the system named is Pseudomonas aeruginosa. Nature of the test: Antibacterial activity against Pseudomonas aeruginosa PAO1 horboring yaaA mutant gene assessed as viable bacterial count at 8 times MIC after 48 hrs by Etest. Type of test: functional, organism-based.
The test system of test [14] is Pseudomonas aeruginosa. Nature of the test: Antibacterial activity against Pseudomonas aeruginosa PAO1 horboring mmsA mutant gene assessed as viable bacterial count at 8 times MIC after 48 hrs by Etest. In kind it is functional, organism-based.

Values after ≈ are worked out from the molar mass of the structure shown. Active and inactive are the calls of the source.

The source of these data is ChEMBL document CHEMBL1671741, “The development of ciprofloxacin resistance in Pseudomonas aeruginosa involves multiple response stages and multiple proteins” (2010).

A word on the MIC: it is the smallest concentration in the dilution series that meets the test's criterion for growth inhibition. For the compound `CC(C)(O/N=C(\C(=O)N[C@@H]1C(=O)N2C(C(=O)[O-])=C(C[n+]3ccccc3)CS[C@H]12)c1csc(N)n1)C(=O)O` [CEFTAZIDIME], the MIC came out at 1 µg/mL (≈ 1.83 µM) in test [1]; 1 µg/mL (≈ 1.83 µM) in test [2]; 1 µg/mL (≈ 1.83 µM) in [3]; 1.5 µg/mL (≈ 2.74 µM) in test [4]; 1 µg/mL (≈ 1.83 µM) in test [5]; 1 µg/mL (≈ 1.83 µM) in [6]. Also, in test [7], inhibition of growth (MIC) required 0.75 µg/mL (≈ 1.37 µM).

Regarding `O=C(O)c1cn(C2CC2)c2cc(N3CCNCC3)c(F)cc2c1=O` [CIPROFLOXACIN], the outcome in test [8], in test [10] and in test [12] was inactive. This compound also came in with an MIC in [1] of 0.19 µg/mL (≈ 0.573 µM). Further, the result in test [9], in [11], in test [13] and in [14] was Active.

Regarding `C[C@@H](O)[C@H]1C(=O)N2C(C(=O)O)=C(SCCNC=N)C[C@H]12` [IMIPENEM ANHYDROUS], the MIC in [1] is 4 µg/mL (≈ 13.4 µM); in test [2], 1.5 µg/mL (≈ 5.01 µM); in test [3], 4 µg/mL (≈ 13.4 µM); in test [4] it was 4 µg/mL (≈ 13.4 µM); in test [5] it was 1.5 µg/mL (≈ 5.01 µM); in test [6], 1 µg/mL (≈ 3.34 µM). The same compound registered an MIC in test [7] of 2 µg/mL (≈ 6.68 µM).

On to `C[C@H]1COc2c(N3CCN(C)CC3)c(F)cc3c(=O)c(C(=O)O)cn1c23.C[C@H]1COc2c(N3CCN(C)CC3)c(F)cc3c(=O)c(C(=O)O)cn1c23.O` [LEVOFLOXACIN], for which the minimum inhibitory concentration (MIC) in [1] amounted to 0.5 µg/mL; in test [2], 0.25 µg/mL; in [5], 0.25 µg/mL; in [6] it was 0.25 µg/mL; in test [7], 0.25 µg/mL.

Turning to `NC[C@H]1O[C@H](O[C@H]2[C@H](O)[C@@H](O[C@H]3O[C@H](CO)[C@@H](O)[C@H](N)[C@H]3O)[C@H](N)C[C@@H]2N)[C@H](N)C[C@@H]1O` [TOBRAMYCIN], the MIC in test [1] amounted to 2 µg/mL (≈ 4.28 µM); in [2], 2 µg/mL (≈ 4.28 µM); in test [3] it was 2 µg/mL (≈ 4.28 µM); in [4] it was 2 µg/mL (≈ 4.28 µM); in [5], 2 µg/mL (≈ 4.28 µM); in test [6], 1.5 µg/mL (≈ 3.21 µM). Besides, the minimal inhibitory concentration (MIC) in test [7] worked out at 2 µg/mL (≈ 4.28 µM).

As for GENTAMICIN, the MIC in test [1] was found to be 3 µg/mL; in test [2], 3 µg/mL; in test [3], 2 µg/mL; in test [4], 3 µg/mL; in [5], 3 µg/mL; in [6], 2 µg/mL. 3 µg/mL was the least that counted as inhibitory in test [7] (MIC).
